In PubChem BioAssay AID256 (DTP/NCI, 2004):
Where “and” joins values, the source holds several entries; their conditions need not be identical. Identical values can stand only once. Toxic doses and inconclusive results are not listed.

Tested on: CD2F1 mice, L1210 leukemia ip, survival T/C
Test: NCI In Vivo Anticancer Drug Screen. Data for tumor model L1210 Leukemia (intraperitoneal) in CD2F1 (CDF1) mice
Settings: higher = longer survival
Method in brief: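 Tumor-bearing mice (transplanted tumor) were split into treated and vehicle control groups, and the measured endpoint of each treated group was divided by that of its vehicle controls.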

[1] = endpoint: mean survival time, dose: 50.0 mg/kg/injection, schedule: Q01DX009 (ip), vehicle: saline with Tween-80
[2] = endpoint: mean survival time, dose: 100.0 mg/kg/injection, schedule: Q01DX009 (ip), vehicle: saline with Tween-80

## O=C1N[C@@H]([C@H]2CC[C@H](Cl)CN2)C(=O)N[C@H]1[C@H]1CC[C@H](Cl)CN1
endpoint: mean survival time, dose: 0.25 mg/kg/injection, schedule: Q01DX009 (iv), vehicle: saline
  T/C: 100 % of control
endpoint: mean survival time, dose: 0.25 mg/kg/injection, schedule: Q03HX016 (ip), vehicle: saline
  T/C: 115 % of control
endpoint: mean survival time, dose: 0.5 mg/kg/injection, schedule: Q01DX009 (iv), vehicle: saline
  T/C: 112 % of control
endpoint: mean survival time, dose: 0.5 mg/kg/injection, schedule: Q01DX009 (oral), vehicle: saline
  T/C: 108 % of control
endpoint: mean survival time, dose: 0.5 mg/kg/injection, schedule: Q03HX016 (ip), vehicle: saline
  T/C: 151 % of control
endpoint: mean survival time, dose: 0.5 mg/kg/injection, schedule: Q03HX024 (ip), vehicle: saline
  T/C: 196 % of control
endpoint: mean survival time, dose: 1.0 mg/kg/injection, schedule: Q01DX001 (iv), vehicle: saline
  T/C: 108 % of control
endpoint: mean survival time, dose: 1.0 mg/kg/injection, schedule: Q01DX009 (ip), vehicle: saline
  T/C: 167 % of control
endpoint: mean survival time, dose: 1.0 mg/kg/injection, schedule: Q01DX009 (oral), vehicle: saline
  T/C: 160 % of control
endpoint: mean survival time, dose: 1.0 mg/kg/injection, schedule: Q03HX008 (ip), vehicle: saline
  T/C: 305 % of control
endpoint: mean survival time, dose: 1.0 mg/kg/injection, schedule: Q03HX016 (ip), vehicle: saline
  T/C: 252 % of control
endpoint: mean survival time, dose: 1.0 mg/kg/injection, schedule: Q03HX024 (ip), vehicle: saline
  T/C: 300 % of control
endpoint: mean survival time, dose: 1.0 mg/kg/injection, schedule: Q04DX003 (oral), vehicle: saline
  T/C: 116 % of control
endpoint: mean survival time, dose: 1.0 mg/kg/injection, schedule: Q08DX002 (ip), vehicle: saline
  T/C: 120 % of control
endpoint: mean survival time, dose: 2.0 mg/kg/injection, schedule: Q01DX001 (iv), vehicle: saline
  T/C: 109 % of control
endpoint: mean survival time, dose: 2.0 mg/kg/injection, schedule: Q01DX001 (oral), vehicle: saline
  T/C: 111 % of control
endpoint: mean survival time, dose: 2.0 mg/kg/injection, schedule: Q01DX001 (sc), vehicle: saline
  T/C: 123 % of control
endpoint: mean survival time, dose: 2.0 mg/kg/injection, schedule: Q01DX009 (ip), vehicle: saline
  T/C: 223 % of control
endpoint: mean survival time, dose: 2.0 mg/kg/injection, schedule: Q01DX009 (iv), vehicle: saline
  T/C: 160 % of control
endpoint: mean survival time, dose: 2.0 mg/kg/injection, schedule: Q01DX009 (oral), vehicle: saline
  T/C: 158 % of control
endpoint: mean survival time, dose: 2.0 mg/kg/injection, schedule: Q03HX008 (ip), vehicle: saline
  T/C: 354 % of control
endpoint: mean survival time, dose: 2.0 mg/kg/injection, schedule: Q03HX016 (ip), vehicle: saline
  T/C: 95 % of control
endpoint: mean survival time, dose: 2.0 mg/kg/injection, schedule: Q03HX024 (ip), vehicle: saline
  T/C: 93 % of control
endpoint: mean survival time, dose: 2.0 mg/kg/injection, schedule: Q04DX003 (ip), vehicle: saline
  T/C: 171 % of control
endpoint: mean survival time, dose: 2.0 mg/kg/injection, schedule: Q04DX003 (oral), vehicle: saline
  T/C: 119 % of control
endpoint: mean survival time, dose: 2.0 mg/kg/injection, schedule: Q08DX002 (oral), vehicle: saline
  T/C: 117 % of control
endpoint: mean survival time, dose: 2.5 mg/kg/injection, schedule: Q01DX001 (ip), vehicle: water
  T/C: 155 % of control
endpoint: mean survival time, dose: 4.0 mg/kg/injection, schedule: Q01DX001 (ip), vehicle: saline
  T/C: 157 % of control
endpoint: mean survival time, dose: 4.0 mg/kg/injection, schedule: Q01DX001 (oral), vehicle: saline
  T/C: 124 % of control
endpoint: mean survival time, dose: 4.0 mg/kg/injection, schedule: Q01DX009 (ip), vehicle: saline
  T/C: 107 % of control
endpoint: mean survival time, dose: 4.0 mg/kg/injection, schedule: Q01DX009 (iv), vehicle: saline
  T/C: 157 % of control
endpoint: mean survival time, dose: 4.0 mg/kg/injection, schedule: Q01DX009 (oral), vehicle: saline
  T/C: 86 % of control
endpoint: mean survival time, dose: 4.0 mg/kg/injection, schedule: Q04DX003 (ip), vehicle: saline
  T/C: 188 % of control and 221 % of control
endpoint: mean survival time, dose: 4.0 mg/kg/injection, schedule: Q04DX003 (oral), vehicle: saline
  T/C: 156 % of control
endpoint: mean survival time, dose: 4.0 mg/kg/injection, schedule: Q08DX002 (ip), vehicle: saline
  T/C: 179 % of control
endpoint: mean survival time, dose: 5.0 mg/kg/injection, schedule: Q01DX001 (ip), vehicle: water
  T/C: 241 % of control and 269 % of control
endpoint: mean survival time, dose: 6.0 mg/kg/injection, schedule: Q01DX001 (ip), vehicle: saline
  T/C: 261 % of control
endpoint: mean survival time, dose: 6.7 mg/kg/injection, schedule: Q01DX001 (ip), vehicle: saline
  T/C: 188 % of control
endpoint: mean survival time, dose: 8.0 mg/kg/injection, schedule: Q01DX001 (ip), vehicle: saline
  T/C: 286 % of control and 501 % of control
endpoint: mean survival time, dose: 8.0 mg/kg/injection, schedule: Q01DX001 (iv), vehicle: saline
  T/C: 157 % of control
endpoint: mean survival time, dose: 8.0 mg/kg/injection, schedule: Q01DX001 (oral), vehicle: saline
  T/C: 154 % of control and 175 % of control
endpoint: mean survival time, dose: 8.0 mg/kg/injection, schedule: Q01DX001 (sc), vehicle: saline
  T/C: 162 % of control
endpoint: mean survival time, dose: 8.0 mg/kg/injection, schedule: Q04DX003 (ip), vehicle: saline
  T/C: 246 % of control
endpoint: mean survival time, dose: 8.0 mg/kg/injection, schedule: Q04DX003 (oral), vehicle: saline
  T/C: 164 % of control
endpoint: mean survival time, dose: 8.0 mg/kg/injection, schedule: Q08DX002 (ip), vehicle: saline
  T/C: 415 % of control
endpoint: mean survival time, dose: 8.0 mg/kg/injection, schedule: Q08DX002 (oral), vehicle: saline
  T/C: 155 % of control
endpoint: mean survival time, dose: 10.0 mg/kg/injection, schedule: Q01DX001 (ip), vehicle: water
  T/C: 296 % of control and 349 % of control
endpoint: mean survival time, dose: 16.0 mg/kg/injection, schedule: Q01DX001 (iv), vehicle: saline
  T/C: 212 % of control
endpoint: mean survival time, dose: 16.0 mg/kg/injection, schedule: Q01DX001 (oral), vehicle: saline
  T/C: 100 % of control
endpoint: mean survival time, dose: 16.0 mg/kg/injection, schedule: Q01DX001 (sc), vehicle: saline
  T/C: 94 % of control
endpoint: mean survival time, dose: 16.0 mg/kg/injection, schedule: Q04DX003 (ip), vehicle: saline
  T/C: 94 % of control and 95 % of control
endpoint: mean survival time, dose: 16.0 mg/kg/injection, schedule: Q04DX003 (oral), vehicle: saline
  T/C: 90 % of control
endpoint: mean survival time, dose: 16.0 mg/kg/injection, schedule: Q08DX002 (ip), vehicle: saline
  T/C: 100 % of control
endpoint: mean survival time, dose: 16.0 mg/kg/injection, schedule: Q08DX002 (oral), vehicle: saline
  T/C: 90 % of control

## O=c1[nH]cnc2[nH]ncc12
endpoint: mean survival time, dose: 8.4 mg/kg/injection, schedule: Q04DX003 (ip), vehicle: saline with Tween-80
  T/C: 99 % of control
endpoint: mean survival time, dose: 14.0 mg/kg/injection, schedule: Q04DX003 (ip), vehicle: saline with Tween-80
  T/C: 103 % of control
endpoint: mean survival time, dose: 23.4 mg/kg/injection, schedule: Q04DX003 (ip), vehicle: saline with Tween-80
  T/C: 96 % of control
endpoint: mean survival time, dose: 39.0 mg/kg/injection, schedule: Q04DX003 (ip), vehicle: saline with Tween-80
  T/C: 101 % of control and 111 % of control
[1]
  T/C: 104 % of control
endpoint: mean survival time, dose: 60.0 mg/kg/injection, schedule: Q01DX006 (ip), vehicle: saline with Tween-80
  T/C: 97 % of control
endpoint: mean survival time, dose: 65.0 mg/kg/injection, schedule: Q04DX003 (ip), vehicle: saline with Tween-80
  T/C: 99 % of control and 104 % of control
[2]
  T/C: 106 % of control
endpoint: mean survival time, dose: 108.0 mg/kg/injection, schedule: Q04DX003 (ip), vehicle: saline with Tween-80
  T/C: 108 % of control and 111 % of control
endpoint: mean survival time, dose: 120.0 mg/kg/injection, schedule: Q01DX006 (ip), vehicle: saline with Tween-80
  T/C: 107 % of control
endpoint: mean survival time, dose: 180.0 mg/kg/injection, schedule: Q04DX003 (ip), vehicle: saline with Tween-80
  T/C: 106 % of control and 109 % of control
endpoint: mean survival time, dose: 200.0 mg/kg/injection, schedule: Q01DX009 (ip), vehicle: saline with Tween-80
  T/C: 107 % of control
endpoint: mean survival time, dose: 300.0 mg/kg/injection, schedule: Q04DX003 (ip), vehicle: saline with Tween-80
  T/C: 104 % of control
endpoint: mean survival time, dose: 500.0 mg/kg/injection, schedule: Q04DX003 (ip), vehicle: saline with Tween-80
  T/C: 104 % of control
endpoint: mean survival time, dose: 833.0 mg/kg/injection, schedule: Q04DX003 (ip), vehicle: saline with Tween-80
  T/C: 97 % of control
endpoint: median survival time, dose: 12.5 mg/kg/injection, schedule: Q01DX009 (ip), vehicle: suspension in saline
  T/C: 101 % of control
endpoint: median survival time, dose: 25.0 mg/kg/injection, schedule: Q01DX009 (ip), vehicle: suspension in saline
  T/C: 103 % of control
endpoint: median survival time, dose: 50.0 mg/kg/injection, schedule: Q01DX009 (ip), vehicle: suspension in saline
  T/C: 100 % of control
endpoint: median survival time, dose: 100.0 mg/kg/injection, schedule: Q01DX009 (ip), vehicle: suspension in saline
  T/C: 101 % of control
endpoint: median survival time, dose: 200.0 mg/kg/injection, schedule: Q01DX009 (ip), vehicle: suspension in saline
  T/C: 107 % of control

## O=C(CCl)Nc1nccs1
endpoint: mean survival time, dose: 12.5 mg/kg/injection, schedule: Q01DX009 (ip), vehicle: saline with Tween-80
  T/C: 100 % of control
endpoint: mean survival time, dose: 25.0 mg/kg/injection, schedule: Q01DX009 (ip), vehicle: saline with Tween-80
  T/C: 95 % of control
[1]
  T/C: 97 % of control
[2]
  T/C: 92 % of control

## CCCCOC(=O)Nc1ccccn1
endpoint: mean survival time, dose: 100.0 mg/kg/injection, schedule: Q04DX002 (ip), vehicle: saline with Tween-80
  T/C: 101 % of control
endpoint: mean survival time, dose: 200.0 mg/kg/injection, schedule: Q04DX002 (ip), vehicle: saline with Tween-80
  T/C: 104 % of control
